Laboratory results from article PMC5015106 (Scientific Reports, 2016).
Numbered stars: 1 amine (or outer) side, 2 acyl side, 3 side chain; on linkers, the order of the positions; unused ones are H or OH. Bridge positions count the residues as written; N and C are the ends. Square brackets hold non-standard residues; d marks the D form. Peptide text beside a SMILES is read from it. hTyr = N[CH](CCc1ccc(O)cc1)C(=O)O; NMeA = CN[CH](C)C(=O)O; CO = O=C([*:1])[*:2]

Assays:
Assay type in all cases: biochemical
[1] = biological target: T1, CPA (Homo sapiens, UniProt P15085); assay: Protease/carboxypeptidase panel: CPA
T1 sequence (P15085 111-419): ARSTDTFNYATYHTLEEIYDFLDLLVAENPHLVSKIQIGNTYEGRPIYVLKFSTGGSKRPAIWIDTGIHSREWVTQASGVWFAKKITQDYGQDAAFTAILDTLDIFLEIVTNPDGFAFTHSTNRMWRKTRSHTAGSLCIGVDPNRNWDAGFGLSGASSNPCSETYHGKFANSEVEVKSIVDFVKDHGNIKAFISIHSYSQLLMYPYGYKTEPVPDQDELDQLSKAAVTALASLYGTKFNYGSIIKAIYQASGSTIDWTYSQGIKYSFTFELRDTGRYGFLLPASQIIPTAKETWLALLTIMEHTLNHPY
Source text: Supplement srep32958-s1.docx, table 1: Table S1: Activities of Anabaenopeptins against a panel of proteases/carboxypeptidases. | column: CPA

[2] = biological target: T2, CPN (Homo sapiens, UniProt P15169); assay: Protease/carboxypeptidase panel: CPN; conditions: read-out: IC50 CPN
T2 sequence (P15169 21-458): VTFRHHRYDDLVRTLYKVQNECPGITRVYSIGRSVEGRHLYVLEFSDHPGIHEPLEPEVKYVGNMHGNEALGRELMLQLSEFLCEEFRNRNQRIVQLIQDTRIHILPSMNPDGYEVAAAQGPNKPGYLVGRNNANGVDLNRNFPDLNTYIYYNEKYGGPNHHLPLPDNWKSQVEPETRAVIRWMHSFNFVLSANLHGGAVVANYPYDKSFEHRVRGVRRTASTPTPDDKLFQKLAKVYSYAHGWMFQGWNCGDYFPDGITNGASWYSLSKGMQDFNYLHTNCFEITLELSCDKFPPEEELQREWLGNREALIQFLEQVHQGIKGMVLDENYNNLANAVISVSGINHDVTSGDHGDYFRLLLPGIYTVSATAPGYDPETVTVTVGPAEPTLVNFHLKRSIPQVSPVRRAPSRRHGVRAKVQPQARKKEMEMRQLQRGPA
T2 sequence (P22792 22-545 partner): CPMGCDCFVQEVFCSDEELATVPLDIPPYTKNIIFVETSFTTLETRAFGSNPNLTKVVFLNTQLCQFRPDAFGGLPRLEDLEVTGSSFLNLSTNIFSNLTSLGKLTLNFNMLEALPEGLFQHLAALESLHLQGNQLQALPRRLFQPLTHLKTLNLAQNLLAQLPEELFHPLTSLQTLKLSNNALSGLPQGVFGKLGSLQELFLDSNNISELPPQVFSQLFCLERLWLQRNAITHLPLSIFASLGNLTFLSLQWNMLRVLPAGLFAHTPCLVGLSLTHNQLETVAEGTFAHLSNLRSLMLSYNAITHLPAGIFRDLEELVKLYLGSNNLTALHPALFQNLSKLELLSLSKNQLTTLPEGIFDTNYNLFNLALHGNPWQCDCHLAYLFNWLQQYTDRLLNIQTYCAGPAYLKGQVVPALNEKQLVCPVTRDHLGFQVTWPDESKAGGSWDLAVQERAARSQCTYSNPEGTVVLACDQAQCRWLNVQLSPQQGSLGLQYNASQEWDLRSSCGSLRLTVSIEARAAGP
Source text: Supplement srep32958-s1.docx, table 1: Table S1: Activities of Anabaenopeptins against a panel of proteases/carboxypeptidases. | column: CPN

[3] = biological target: FXa (Homo sapiens, UniProt P00742); assay: Protease/carboxypeptidase panel: FXa; conditions: for inhibition at 100 µM: read-out: Inh.@100µM in % FXa
Source text: Supplement srep32958-s1.docx, table 1: Table S1: Activities of Anabaenopeptins against a panel of proteases/carboxypeptidases. | column: FXa

[4] = biological target: T3, FVIIa (Homo sapiens, UniProt P08709); assay: Protease/carboxypeptidase panel: FVIIa; conditions: read-out: Inh.@100µM in % FVIIa
T3 sequence (P08709 213-466 limits assumed): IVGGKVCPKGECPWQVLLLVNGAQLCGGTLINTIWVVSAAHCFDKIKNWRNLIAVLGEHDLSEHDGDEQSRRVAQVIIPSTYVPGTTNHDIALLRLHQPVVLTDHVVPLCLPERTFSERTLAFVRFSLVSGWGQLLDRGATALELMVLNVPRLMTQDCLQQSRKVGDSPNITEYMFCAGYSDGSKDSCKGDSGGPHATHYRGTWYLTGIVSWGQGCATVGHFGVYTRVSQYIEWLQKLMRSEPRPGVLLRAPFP
T3 sequence (P08709 61-212 partner limits assumed): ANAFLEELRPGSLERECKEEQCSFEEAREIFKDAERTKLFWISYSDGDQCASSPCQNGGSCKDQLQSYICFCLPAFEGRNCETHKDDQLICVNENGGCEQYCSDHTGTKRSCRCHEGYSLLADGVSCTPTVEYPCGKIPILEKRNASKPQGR
Source text: Supplement srep32958-s1.docx, table 1: Table S1: Activities of Anabaenopeptins against a panel of proteases/carboxypeptidases. | column: FVIIa

[5] = biological target: FIIa (Homo sapiens, UniProt P00734); assay: Protease/carboxypeptidase panel: FIIa; conditions: read-out: Ki FIIa
Source text: Supplement srep32958-s1.docx, table 1: Table S1: Activities of Anabaenopeptins against a panel of proteases/carboxypeptidases. | column: FIIa

FXa, sequence (P00742 235-488 limits assumed): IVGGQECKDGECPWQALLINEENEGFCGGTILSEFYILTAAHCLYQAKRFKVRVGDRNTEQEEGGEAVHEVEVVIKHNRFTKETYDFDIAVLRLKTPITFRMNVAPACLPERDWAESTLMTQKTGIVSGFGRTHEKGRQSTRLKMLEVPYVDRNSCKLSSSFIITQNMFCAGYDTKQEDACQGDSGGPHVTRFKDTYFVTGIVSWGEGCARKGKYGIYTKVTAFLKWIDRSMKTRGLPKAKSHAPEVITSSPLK
FXa, sequence (P00742 41-179 partner limits assumed): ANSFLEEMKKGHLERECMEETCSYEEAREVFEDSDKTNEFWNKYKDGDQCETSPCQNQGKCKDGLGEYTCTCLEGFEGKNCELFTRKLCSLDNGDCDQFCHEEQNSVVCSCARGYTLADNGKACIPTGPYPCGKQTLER

Molecule `CC(C)[C@@H]1NC(=O)[C@H](NC(=O)N[C@@H](CCCNC(=N)N)C(=O)O)CCCCNC(=O)[C@H](Cc2ccccc2)NC(=O)[C@H](C)N(C)C(=O)[C@H](CCc2ccc(O)cc2)NC1=O` [Compound 1, Anabaenopeptin B] ({Arg-CO}-[dK]V[hTyr][NMeA]F; lactam 1-C) has an IC50 [1] of 3.9 µM, an IC50 [2] of 5.4 µM and an inhibition at 100 µM [3] of 22%. The inhibition at 100 µM [4] was 35% and the Ki [5] was 1.6 µM.
For `CC(C)C1NC(=O)C(NC(=O)NC(CCCCN)C(=O)O)CCCCNC(=O)C(Cc2ccccc2)NC(=O)C(C)N(C)C(=O)C(CCc2ccc(O)cc2)NC1=O` (centres unmarked) [Compound 2, Anabaenopeptin C] ({Lys-CO}-KV[hTyr][NMeA]F; lactam 1-C; configuration not given here), the inhibition at 100 µM ([1]; 100 µM, read-out: Inh.@100µM in % CPA) was 31%, the IC50 [2] was 5.7 µM and the inhibition at 100 µM [3] was 42%. It also gave an inhibition at 100 µM [4] of 36% and a Ki [5] of 6 µM.
In the case of `CC[C@H](C)[C@@H]1NC(=O)[C@H](NC(=O)N[C@@H](CCCNC(=N)N)C(=O)O)CCCCNC(=O)[C@H](Cc2ccccc2)NC(=O)[C@H](C)N(C)C(=O)[C@H](CCc2ccc(O)cc2)NC1=O` [Compound 3, Anabaenopeptin F] ({Arg-CO}-[dK]I[hTyr][NMeA]F; lactam 1-C), the IC50 [1] is reported as 1.1 µM, the IC50 [2] is reported as 2.7 µM and the Ki [3] is reported as 38 µM. It also gave a Ki [5] of 0.35 µM.
